Blank lines part the entries; values can stand above or below the compound they belong to.
What was measured:
[1] = target: T1, human quinone reductase 2 (QR2) (Homo sapiens, UniProt P16083); experiment: QR2 steady-state kinetic assay; type: biochemical; details: for inhibitory activity against QR2: result in words
T1 sequence (P16083 1-231): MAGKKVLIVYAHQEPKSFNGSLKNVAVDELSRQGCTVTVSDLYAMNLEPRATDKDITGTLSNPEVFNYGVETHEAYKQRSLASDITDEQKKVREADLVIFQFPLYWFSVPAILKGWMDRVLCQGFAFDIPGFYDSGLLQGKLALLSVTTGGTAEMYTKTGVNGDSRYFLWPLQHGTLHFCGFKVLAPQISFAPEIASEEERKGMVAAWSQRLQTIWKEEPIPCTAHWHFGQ

[2] = test system: normal prostate epithelial cells (PrECs); details: result in words; cited from earlier work
[3] = test system: normal prostate stromal cells (PrSCs); details: result in words; cited from earlier work

increase in QR2 inhibitory activity ([1]; relative to 12): 10 fold
SMILES: COC(=O)c1cc(C(N)=O)nc2cc(N)c(N)c(Cl)c12 [Compound 23, Methyl 6,7-Diamino-2-carbamoyl-5-chloroquinoline-4-carboxylate]

SMILES: COC(=O)C1CC(O)(C(=O)OC)c2c(N)c(Cl)cc(Cl)c2N1 (centres unmarked) [Compound 26, Dimethyl 5-Amino-6,8-dichloro-4-hydroxy-1,2,3,4-tetrahydroquinoline-2,4-dicarboxylate]
inhibitory activity against QR2 [1]: none showed inhibitory activity

SMILES: COC(=O)C1CC2(O)C(=O)Nc3c(Cl)cc(Cl)c(c32)N1 (centres unmarked) [Compound 33, Methyl 6,8-Dichloro-2a-hydroxy-2-oxo-1,2,2a,3,4,5-hexahydropyrrolo[4,3,2-d,e]quinoline-4-carboxylate]
inhibitory activity against QR2 [1]: none showed inhibitory activity

SMILES: Oc1ccc(/C=C/c2cc(O)cc(O)c2)cc1 [resveratrol]
effect on PrEC growth [2]: no effect | effect on cellular proliferation of PrSCs [3]: dose-dependent inhibition of cellular proliferation
